These results are taken from article PMC6961116, “Scaffold-hopping identifies furano[2,3-d]pyrimidine amides as potent Notum inhibitors” (Bioorganic & Medicinal Chemistry Letters, 2020).

Where only a bound is given, the exact number is not on record here.

By IC50 is commonly meant the concentration needed to halve the response being measured. Low readings indicate greater potency, high ones weaker potency. As a reminder, the Papp is a coefficient for how fast a substance crosses the barrier.

One data set concerns the target T1, Notum(81–451 Cys330Ser) (Homo sapiens, UniProt Q6P988, C330S).
T1 sequence (Q6P988 81-451 C330S): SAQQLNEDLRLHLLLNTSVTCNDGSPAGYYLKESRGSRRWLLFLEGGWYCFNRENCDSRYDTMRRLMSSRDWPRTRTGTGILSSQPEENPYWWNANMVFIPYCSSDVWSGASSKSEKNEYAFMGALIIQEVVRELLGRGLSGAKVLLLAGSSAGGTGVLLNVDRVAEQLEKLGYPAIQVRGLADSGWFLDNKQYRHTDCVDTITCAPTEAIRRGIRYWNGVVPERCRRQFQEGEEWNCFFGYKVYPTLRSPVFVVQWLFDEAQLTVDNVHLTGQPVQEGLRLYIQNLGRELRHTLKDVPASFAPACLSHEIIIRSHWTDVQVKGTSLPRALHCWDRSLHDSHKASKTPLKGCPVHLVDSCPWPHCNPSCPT
The data set is described as follows: Notum biochemical OPTS assay (carboxylesterase activity). To be noted: OPTS substrate, 1 h incubation; geometric mean ± s.d.
As to `Cc1sc2ncnc(SCC(=O)N(C)C)c2c1Cl` [Compound 5a], half-maximal inhibition (IC50) required 15 ± 6 nM.

As for `Cc1sc2ncnc(SCC(=O)N3CCCCC3)c2c1Cl` [Compound 5b], half-maximal inhibition (IC50) was put at 220 ± 12 nM.

With `Cc1sc2ncnc(SCC(=O)N3CCOCC3)c2c1Cl` [Compound 5c], half-maximal inhibition (IC50) was put at 69 ± 10 nM.

Compound `Cc1sc2ncnc(SCC(=O)N3CCNC(=O)C3)c2c1Cl` [Compound 5d] yielded a 50% inhibitory concentration (IC50) of 5.8 ± 4 nM.

For `Cc1sc2ncnc(SCC(=O)N3CNC(=O)C3)c2c1Cl` [Compound 5e], the IC50 was found to be 2.7 ± 0.5 nM.

`Cc1sc2ncnc(SCC(=O)N3CCN(C)C(=O)C3)c2c1Cl` [Compound 5g] gave an IC50 of 6.2 ± 0.5 nM.

In turn, `CCN1CCN(C(=O)CSc2ncnc3sc(C)c(Cl)c23)CC1=O` [Compound 5h] had a half-maximal inhibitory concentration (IC50) of 4.2 ± 0.4 nM.

Compound `Cc1sc2ncnc(SCC(=O)N3CC(=O)NC(C)C3)c2c1Cl` (stereo not shown) [Compound 5i] had an IC50 of 33 ± 5 nM.

`Cc1sc2ncnc(SCC(=O)N3CC(=O)NC(C)(C)C3)c2c1Cl` [Compound 5j] had an IC50 of 450 ± 200 nM.

The compound `Cc1sc2ncnc(SCC(=O)N3CC(=O)N4CCCC4C3)c2c1Cl` (stereo not shown) [Compound 5k] displayed an IC50 of 20 ± 4 nM.

As for `CCN1CN(C(=O)CSc2ncnc3sc(C)c(Cl)c23)CC1=O` [Compound 5m], it took 2.6 ± 0.1 nM to reach half-maximal inhibition (IC50).

Compound `Cc1sc2ncnc(SCC(=O)N3CC(=O)N(C4CC4)C3)c2c1Cl` [Compound 5n] returned an IC50 of 3.8 ± 1.3 nM.

In turn, `Cc1sc2ncnc(SCC(=O)N3CC(=O)N(CC(F)(F)F)C3)c2c1Cl` [Compound 5o] yielded a 50% inhibitory concentration (IC50) of 3.9 ± 0.4 nM.

`Cc1sc2ncnc(SCC(=O)N3CCn4c(C)nnc4C3)c2c1Cl` [Compound 5p]: the IC50 is 16 ± 2 nM.

As to `CCc1nnc2n1CCN(C(=O)CSc1ncnc3sc(C)c(Cl)c13)C2` [Compound 5q], half-maximal inhibition (IC50) required 23 ± 5 nM.

For the compound `Cc1sc2ncnc(SCC(=O)N3CCn4c(nnc4C4CC4)C3)c2c1Cl` [Compound 5r], inhibition was half-maximal at 27 ± 3 nM (IC50).

`Cc1sc2ncnc(SCC(=O)N3CCn4c(nnc4C(F)(F)F)C3)c2c1Cl` [Compound 5s] came in with an IC50 of 38 ± 3 nM.

The compound `Cc1sc2ncnc(SCC(=O)N3CCn4ncnc4C3)c2c1Cl` [Compound 5t] had an IC50 of 15 ± 3 nM.

With `Cc1nc2n(n1)CCN(C(=O)CSc1ncnc3sc(C)c(Cl)c13)C2` [Compound 5u], 11 ± 6 nM corresponded to half-maximal inhibition (IC50).

Test system in another data set: not listed separately
Nature of the data set: Metabolic stability in mouse liver microsomes (MLM). In kind it is in vitro ADME. To be noted: mouse liver microsomes. Background: Liver microsomes are a subcellular fraction often used to study metabolism.
For `Cc1sc2ncnc(SCC(=O)N(C)C)c2c1Cl` [Compound 5a], the “MLM Cli” value is 360 µL/min/mg.

Regarding `Cc1sc2ncnc(SCC(=O)N3CCNC(=O)C3)c2c1Cl` [Compound 5d], the “MLM Cli” value came to 19 µL/min/mg.

In the case of `Cc1sc2ncnc(SCC(=O)N3CNC(=O)C3)c2c1Cl` [Compound 5e], the “MLM Cli” value worked out at 65 µL/min/mg.

With `Cc1sc2ncnc(SCC(=O)N3CCN(C)C(=O)C3)c2c1Cl` [Compound 5g], the “MLM Cli” value stood at 33 µL/min/mg.

Regarding `CCN1CCN(C(=O)CSc2ncnc3sc(C)c(Cl)c23)CC1=O` [Compound 5h], the “MLM Cli” value turned out to be 100 µL/min/mg.

`Cc1sc2ncnc(SCC(=O)N3CC(=O)N4CCCC4C3)c2c1Cl` (stereo not shown) [Compound 5k]: the “MLM Cli” value amounted to 63 µL/min/mg.

On to `CCN1CN(C(=O)CSc2ncnc3sc(C)c(Cl)c23)CC1=O` [Compound 5m], for which the “MLM Cli” value was found to be 43 µL/min/mg.

`Cc1sc2ncnc(SCC(=O)N3CC(=O)N(C4CC4)C3)c2c1Cl` [Compound 5n]: the “MLM Cli” value was found to be 49 µL/min/mg.

Consider `Cc1sc2ncnc(SCC(=O)N3CC(=O)N(CC(F)(F)F)C3)c2c1Cl` [Compound 5o], for which the “MLM Cli” value turned out to be 140 µL/min/mg.

On to `Cc1sc2ncnc(SCC(=O)N3CCn4c(C)nnc4C3)c2c1Cl` [Compound 5p], for which the “MLM Cli” value came out at 15 µL/min/mg.

For the compound `CCc1nnc2n1CCN(C(=O)CSc1ncnc3sc(C)c(Cl)c13)C2` [Compound 5q], the “MLM Cli” value was 38 µL/min/mg.

Turning to `Cc1sc2ncnc(SCC(=O)N3CCn4c(nnc4C4CC4)C3)c2c1Cl` [Compound 5r], the “MLM Cli” value came out at 53 µL/min/mg.

With `Cc1sc2ncnc(SCC(=O)N3CCn4c(nnc4C(F)(F)F)C3)c2c1Cl` [Compound 5s], the “MLM Cli” value came out at 93 µL/min/mg.

For the compound `Cc1sc2ncnc(SCC(=O)N3CCn4ncnc4C3)c2c1Cl` [Compound 5t], the “MLM Cli” value was found to be 53 µL/min/mg.

In the case of `Cc1nc2n(n1)CCN(C(=O)CSc1ncnc3sc(C)c(Cl)c13)C2` [Compound 5u], the “MLM Cli” value amounted to 37 µL/min/mg.

The subject of another data set is P-gp (MDR1). Nature of the data set: MDCK-MDR1 cell permeability and efflux. To be noted: dog, MDCK-MDR1, A to B direction; read-out: MDCK-MDR1 AB Papp. In kind it is in vitro ADME.
Regarding `Cc1sc2ncnc(SCC(=O)N3CCNC(=O)C3)c2c1Cl` [Compound 5d], the Papp amounted to 12 ×10⁻⁶ cm/s.

For the compound `Cc1sc2ncnc(SCC(=O)N3CNC(=O)C3)c2c1Cl` [Compound 5e], the apparent permeability (Papp) was 14 ×10⁻⁶ cm/s.

As to `Cc1sc2ncnc(SCC(=O)N3CCN(C)C(=O)C3)c2c1Cl` [Compound 5g], the Papp turned out to be 23 ×10⁻⁶ cm/s.

`CCN1CCN(C(=O)CSc2ncnc3sc(C)c(Cl)c23)CC1=O` [Compound 5h]: the apparent permeability (Papp) was determined as 1.1 ×10⁻⁶ cm/s.

On to `Cc1sc2ncnc(SCC(=O)N3CC(=O)N4CCCC4C3)c2c1Cl` (stereo not shown) [Compound 5k], for which the Papp stood at 7 ×10⁻⁶ cm/s.

Turning to `CCN1CN(C(=O)CSc2ncnc3sc(C)c(Cl)c23)CC1=O` [Compound 5m], the apparent permeability coefficient (Papp) came to 35 ×10⁻⁶ cm/s.

With `Cc1sc2ncnc(SCC(=O)N3CCn4c(C)nnc4C3)c2c1Cl` [Compound 5p], the Papp was found to be 0.5 ×10⁻⁶ cm/s.

Turning to `CCc1nnc2n1CCN(C(=O)CSc1ncnc3sc(C)c(Cl)c13)C2` [Compound 5q], the apparent permeability coefficient (Papp) turned out to be 0.8 ×10⁻⁶ cm/s.

Regarding `Cc1sc2ncnc(SCC(=O)N3CCn4c(nnc4C4CC4)C3)c2c1Cl` [Compound 5r], the Papp came out at 0.8 ×10⁻⁶ cm/s.

`Cc1sc2ncnc(SCC(=O)N3CCn4c(nnc4C(F)(F)F)C3)c2c1Cl` [Compound 5s]: the apparent permeability (Papp) was determined as 15 ×10⁻⁶ cm/s.

Regarding `Cc1sc2ncnc(SCC(=O)N3CCn4ncnc4C3)c2c1Cl` [Compound 5t], the Papp worked out at 19 ×10⁻⁶ cm/s.

In the case of `Cc1nc2n(n1)CCN(C(=O)CSc1ncnc3sc(C)c(Cl)c13)C2` [Compound 5u], the Papp was 17 ×10⁻⁶ cm/s.

The same data set, now with this note: dog, MDCK-MDR1, B to A direction; read-out: MDCK-MDR1 BA Papp.
For `Cc1sc2ncnc(SCC(=O)N3CCNC(=O)C3)c2c1Cl` [Compound 5d], the Papp amounted to 66 ×10⁻⁶ cm/s.

As to `Cc1sc2ncnc(SCC(=O)N3CNC(=O)C3)c2c1Cl` [Compound 5e], the Papp is 82 ×10⁻⁶ cm/s.

Consider `Cc1sc2ncnc(SCC(=O)N3CCN(C)C(=O)C3)c2c1Cl` [Compound 5g], for which the Papp was found to be 62 ×10⁻⁶ cm/s.

`CCN1CCN(C(=O)CSc2ncnc3sc(C)c(Cl)c23)CC1=O` [Compound 5h]: the apparent permeability (Papp) worked out at 37 ×10⁻⁶ cm/s.

`Cc1sc2ncnc(SCC(=O)N3CC(=O)N4CCCC4C3)c2c1Cl` (stereo not shown) [Compound 5k]: the Papp was determined as 51 ×10⁻⁶ cm/s.

Turning to `CCN1CN(C(=O)CSc2ncnc3sc(C)c(Cl)c23)CC1=O` [Compound 5m], the Papp was 51 ×10⁻⁶ cm/s.

As to `Cc1sc2ncnc(SCC(=O)N3CCn4c(C)nnc4C3)c2c1Cl` [Compound 5p], the Papp is 51 ×10⁻⁶ cm/s.

Regarding `CCc1nnc2n1CCN(C(=O)CSc1ncnc3sc(C)c(Cl)c13)C2` [Compound 5q], the Papp was 65 ×10⁻⁶ cm/s.

As for `Cc1sc2ncnc(SCC(=O)N3CCn4c(nnc4C4CC4)C3)c2c1Cl` [Compound 5r], the apparent permeability coefficient (Papp) was 78 ×10⁻⁶ cm/s.

On to `Cc1sc2ncnc(SCC(=O)N3CCn4c(nnc4C(F)(F)F)C3)c2c1Cl` [Compound 5s], for which the Papp is 85 ×10⁻⁶ cm/s.

For `Cc1sc2ncnc(SCC(=O)N3CCn4ncnc4C3)c2c1Cl` [Compound 5t], the Papp came to 49 ×10⁻⁶ cm/s.

On to `Cc1nc2n(n1)CCN(C(=O)CSc1ncnc3sc(C)c(Cl)c13)C2` [Compound 5u], for which the Papp was 44 ×10⁻⁶ cm/s.

Staying with this data set, now noted: dog, MDCK-MDR1; read-out: MDCK-MDR1 efflux ratio (ER).
For the compound `Cc1sc2ncnc(SCC(=O)N3CCNC(=O)C3)c2c1Cl` [Compound 5d], the efflux ratio came to 5.5.

For `Cc1sc2ncnc(SCC(=O)N3CNC(=O)C3)c2c1Cl` [Compound 5e], the efflux ratio was 5.9.

For the compound `Cc1sc2ncnc(SCC(=O)N3CCN(C)C(=O)C3)c2c1Cl` [Compound 5g], the efflux ratio came to 2.7.

Regarding `CCN1CCN(C(=O)CSc2ncnc3sc(C)c(Cl)c23)CC1=O` [Compound 5h], the efflux ratio is 34.

As to `Cc1sc2ncnc(SCC(=O)N3CC(=O)N4CCCC4C3)c2c1Cl` (stereo not shown) [Compound 5k], the efflux ratio is 7.3.

As for `CCN1CN(C(=O)CSc2ncnc3sc(C)c(Cl)c23)CC1=O` [Compound 5m], the efflux ratio is 1.5.

As for `Cc1sc2ncnc(SCC(=O)N3CCn4c(C)nnc4C3)c2c1Cl` [Compound 5p], the efflux ratio is over 100.

For the compound `CCc1nnc2n1CCN(C(=O)CSc1ncnc3sc(C)c(Cl)c13)C2` [Compound 5q], the efflux ratio is 81.

As to `Cc1sc2ncnc(SCC(=O)N3CCn4c(nnc4C4CC4)C3)c2c1Cl` [Compound 5r], the efflux ratio was 97.

`Cc1sc2ncnc(SCC(=O)N3CCn4c(nnc4C(F)(F)F)C3)c2c1Cl` [Compound 5s]: the efflux ratio stood at 5.7.

As for `Cc1sc2ncnc(SCC(=O)N3CCn4ncnc4C3)c2c1Cl` [Compound 5t], the efflux ratio is 2.6.

For `Cc1nc2n(n1)CCN(C(=O)CSc1ncnc3sc(C)c(Cl)c13)C2` [Compound 5u], the efflux ratio amounted to 2.6.
